In ChEMBL document CHEMBL1201862, “PubChem BioAssay data set” (2004):
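Growth conditions: 96-well plates. Treatment: test compound, 48 hours, 5 concentrations. Analysis: linear interpolation between bracketing concentrations; unreached endpoints set to highest concentration. GI50: concentration for 50% inhibition of growth.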 Active and inactive are the calls of the source. Rule as the data show it: active = GI50 up to about 1.1 µM and inactive = higher.

How the values were obtained:
Test in all cases: NCI-60 cell line screen, 48 h
NCI-H226 = test system: NCI-H226
U-251 = test system: U-251
MCF7 = test system: MCF7
786-0 = test system: 786-0
RPMI-8226 = test system: RPMI-8226
BT-549 = test system: BT-549
UO-31 = test system: UO-31
DU-145 = test system: DU-145
HT-29 = test system: HT-29
MDA-N = test system: MDA-N
MDA-MB-231 = test system: MDA-MB-231
T47D = test system: T47D
MOLT-4 = test system: MOLT-4
CAKI-1 = test system: CAKI-1
SNB-75 = test system: SNB-75
HCT-15 = test system: HCT-15
OVCAR-8 = test system: OVCAR-8
OVCAR-4 = test system: OVCAR-4
SN12C = test system: SN12C
IGROV-1 = test system: IGROV-1
NCI/ADR-RES = test system: NCI/ADR-RES
NCI-H460 = test system: NCI-H460
MDA-MB-435 = test system: MDA-MB-435
A549 = test system: A549
UACC-62 = test system: UACC-62
CCRF-CEM = test system: CCRF-CEM
SK-OV-3 = test system: SK-OV-3
Malme-3M = test system: Malme-3M
PC-3 = test system: PC-3
SNB-19 = test system: SNB-19
UACC-257 = test system: UACC-257
HCT-116 = test system: HCT-116
HCC 2998 = test system: HCC 2998
SK-MEL-5 = test system: SK-MEL-5
M14 = test system: M14
SF-295 = test system: SF-295
HL-60 = test system: HL-60
NCI-H522 = test system: NCI-H522
RXF 393 = test system: RXF 393
HOP-92 = test system: HOP-92
COLO 205 = test system: COLO 205
KM12 = test system: KM12
OVCAR-5 = test system: OVCAR-5
SK-MEL-2 = test system: SK-MEL-2
TK-10 = test system: TK-10
ACHN = test system: ACHN
Hs-578T = test system: Hs-578T
SW-620 = test system: SW-620
SF-268 = test system: SF-268
HOP-62 = test system: HOP-62
SK-MEL-28 = test system: SK-MEL-28
EKVX = test system: EKVX
OVCAR-3 = test system: OVCAR-3
NCI-H23 = test system: NCI-H23
A498 = test system: A498
SF-539 = test system: SF-539
K562 = test system: K562
LOX IMVI = test system: LOX IMVI

Measured: GI50

COc1ccc2c(c1)CC[C@@H]1[C@@H]2CC[C@]2(C)[C@@H](O)/C(=C/c3ccncc3)C[C@@H]12
6.95 µM: HCT-15
inactive: NCI-H226 20.1 µM | U-251 12.4 µM | MCF7 16.6 µM | 786-0 14.2 µM | RPMI-8226 3.69 µM | BT-549 15.7 µM | UO-31 14 µM | DU-145 18 µM | HT-29 3.99 µM | MDA-N 12.4 µM | MDA-MB-231 14.2 µM | T47D 5.14 µM | MOLT-4 4.65 µM | CAKI-1 14.8 µM | SNB-75 10.4 µM | OVCAR-8 14.4 µM | OVCAR-4 23.2 µM | SN12C 22.8 µM | IGROV-1 14.9 µM | NCI/ADR-RES 15 µM | NCI-H460 14.2 µM | MDA-MB-435 9.77 µM | A549 9.84 µM | UACC-62 13.8 µM | CCRF-CEM 11.1 µM | SK-OV-3 21.2 µM | Malme-3M 12.3 µM | PC-3 10.1 µM | SNB-19 18.8 µM | UACC-257 16.6 µM | HCT-116 11 µM | HCC 2998 8.59 µM | SK-MEL-5 9.75 µM | M14 11.3 µM | SF-295 10.5 µM | HL-60 7.98 µM | NCI-H522 14 µM | RXF 393 4.25 µM | HOP-92 14 µM | COLO 205 3.94 µM | KM12 9.71 µM | OVCAR-5 12.5 µM | SK-MEL-2 16.3 µM | TK-10 18.9 µM | ACHN 26.5 µM | Hs-578T 12.8 µM | SW-620 6.41 µM | SF-268 12.6 µM | HOP-62 16.9 µM | SK-MEL-28 15.3 µM | EKVX 18.5 µM | OVCAR-3 18.5 µM | NCI-H23 12.8 µM | A498 17.5 µM

O=C(O)C1C(C(=O)Nc2ccc3c(c2)Cc2ccccc2-3)C2(Cl)C(Cl)=C(Cl)C1(Cl)C2(Cl)Cl (configuration not stated)
inactive: NCI-H226 29 µM | U-251 15.2 µM | MCF7 22.5 µM | 786-0 30.3 µM | RPMI-8226 14.6 µM | BT-549 19.1 µM | UO-31 22.5 µM | DU-145 31.1 µM | HT-29 20.3 µM | MDA-N 35.6 µM | MDA-MB-231 20.2 µM | T47D 32.1 µM | MOLT-4 11.6 µM | CAKI-1 41.9 µM | SNB-75 26.2 µM | OVCAR-8 20.3 µM | OVCAR-4 27.7 µM | SN12C 33.3 µM | IGROV-1 20 µM | NCI/ADR-RES 36.6 µM | MDA-MB-435 29.1 µM | A549 33.3 µM | UACC-62 16.1 µM | CCRF-CEM 18.7 µM | SK-OV-3 45.5 µM | Malme-3M 20.6 µM | PC-3 15.6 µM | SNB-19 36 µM | UACC-257 20.6 µM | HCT-116 18.7 µM | HCC 2998 20.6 µM | SK-MEL-5 14.2 µM | SF-539 13.2 µM | M14 20.4 µM | SF-295 39.1 µM | HL-60 26.6 µM | NCI-H522 18.6 µM | RXF 393 20.5 µM | HOP-92 21.5 µM | COLO 205 17.6 µM | KM12 18.7 µM | OVCAR-5 20.4 µM | SK-MEL-2 19.1 µM | TK-10 27.2 µM | ACHN 30.3 µM | Hs-578T 19.9 µM | SW-620 25.6 µM | SF-268 26.2 µM | HOP-62 31.2 µM | SK-MEL-28 21.5 µM | EKVX 34.4 µM | OVCAR-3 17.6 µM | NCI-H23 17.5 µM | K562 2.6 µM | LOX IMVI 18.4 µM | A498 19.4 µM
21.5 µM: HCT-15
